System: SEM cells
Assay: cell viability relative to DMSO control; higher = less cytotoxic
Conditions: 48 h
Summary of the method: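 Viability is a per-plate percentage relative to DMSO wells, with cell-free wells as background. CellTiter-Glo One luminescence was read after 48 h at 37°C on 1536-well plates (5 μl) of NOMO1 or SEM (500 cells/well) or P12-Ichikawa (1000 cells/well) leukemia cells. The cells had been adapted for at least four passages in each medium and pin-dosed with library compounds in DMSO from 47 μM to 0.79 nM in 11 threefold steps.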

[1] = HPLM + 10% dialyzed FBS, 0.000781 µM
[2] = HPLM + 10% dialyzed FBS, 0.00234 µM
[3] = HPLM + 10% dialyzed FBS, 0.00702 µM
[4] = HPLM + 10% dialyzed FBS, 0.0211 µM
[5] = HPLM + 10% dialyzed FBS, 0.0632 µM
[6] = HPLM + 10% dialyzed FBS, 0.19 µM
[7] = HPLM + 10% dialyzed FBS, 0.569 µM
[8] = HPLM + 10% dialyzed FBS, 1.71 µM
[9] = HPLM + 10% dialyzed FBS, 5.12 µM
[10] = HPLM + 10% dialyzed FBS, 15.4 µM
[11] = HPLM + 10% dialyzed FBS, 46.1 µM
[12] = RPMI 5 mM glucose + 10% FBS, 0.000781 µM
[13] = RPMI 5 mM glucose + 10% FBS, 0.00234 µM
[14] = RPMI 5 mM glucose + 10% FBS, 0.00702 µM
[15] = RPMI 5 mM glucose + 10% FBS, 0.0211 µM
[16] = RPMI 5 mM glucose + 10% FBS, 0.0632 µM
[17] = RPMI 5 mM glucose + 10% FBS, 0.19 µM
[18] = RPMI 5 mM glucose + 10% FBS, 0.569 µM
[19] = RPMI 5 mM glucose + 10% FBS, 1.71 µM
[20] = RPMI 5 mM glucose + 10% FBS, 5.12 µM
[21] = RPMI 5 mM glucose + 10% FBS, 15.4 µM
[22] = RPMI 5 mM glucose + 10% FBS, 46.1 µM
[23] = RPMI 5 mM glucose + 10% dialyzed FBS, 0.000781 µM
[24] = RPMI 5 mM glucose + 10% dialyzed FBS, 0.00234 µM
[25] = RPMI 5 mM glucose + 10% dialyzed FBS, 0.00702 µM
[26] = RPMI 5 mM glucose + 10% dialyzed FBS, 0.0211 µM
[27] = RPMI 5 mM glucose + 10% dialyzed FBS, 0.0632 µM
[28] = RPMI 5 mM glucose + 10% dialyzed FBS, 0.19 µM
[29] = RPMI 5 mM glucose + 10% dialyzed FBS, 0.569 µM
[30] = RPMI 5 mM glucose + 10% dialyzed FBS, 1.71 µM
[31] = RPMI 5 mM glucose + 10% dialyzed FBS, 5.12 µM
[32] = RPMI 5 mM glucose + 10% dialyzed FBS, 15.4 µM
[33] = RPMI 5 mM glucose + 10% dialyzed FBS, 46.1 µM

| Compound | cell viability [1] [%] | cell viability [2] [%] | cell viability [3] [%] | cell viability [4] [%] | cell viability [5] [%] | cell viability [6] [%] | cell viability [7] [%] | cell viability [8] [%] | cell viability [9] [%] | cell viability [10] [%] | cell viability [11] [%] | cell viability [12] [%] | cell viability [13] [%] | cell viability [14] [%] | cell viability [15] [%] | cell viability [16] [%] | cell viability [17] [%] | cell viability [18] [%] | cell viability [19] [%] | cell viability [20] [%] | cell viability [21] [%] | cell viability [22] [%] | cell viability [23] [%] | cell viability [24] [%] | cell viability [25] [%] | cell viability [26] [%] | cell viability [27] [%] | cell viability [28] [%] | cell viability [29] [%] | cell viability [30] [%] | cell viability [31] [%] | cell viability [32] [%] | cell viability [33] [%] |
| --- | --- | --- | --- | --- | --- | --- | --- | --- | --- | --- | --- | --- | --- | --- | --- | --- | --- | --- | --- | --- | --- | --- | --- | --- | --- | --- | --- | --- | --- | --- | --- | --- | --- |
| CCC[C@H](N[C@@H](C)C(=O)N1[C@H](C(=O)O)C[C@@H]2CCCC[C@@H]21)C(=O)OCC | 114 | 111 | 104 | 114 | 120 | 115 | 118 | 112 | 106 | 111 | 105 | 107 | 101 | 107 | 110 | 105 | 116 | 104 | 110 | 105 | 98.6 | 102 | 110 | 105 | 108 | 122 | 111 | 110 | 107 | 106 | 125 | 122 | 106 |
| CC(=O)C\1=C(/C)C2=CN=C(NC3=CC=C(C=N3)N4CCNCC4)N=C2N(C5CCCC5)C1=O | 124 | 125 | 107 | 125 | 119 | 109 | 80.6 | 68.1 | 59.6 | 60.8 | 27.5 | 114 | 119 | 133 | 113 | 126 | 126 | 100 | 80.5 | 61.6 | 59.9 | 22.2 | 125 | 107 | 130 | 122 | 127 | 99.2 | 86.8 | 74.4 | 68.5 | 63.6 | 29.2 |
| CNC1[C@@H](O)C(O[C@@H]2C(O)C(O[C@H]3O[C@H]([C@@H](C)NC)CC[C@H]3N)[C@@H](N)C[C@H]2N)OC[C@]1(C)O (stereo partly specified) | 99.8 | 96.4 | 99.2 | 95.1 | 113 | 106 | 93.2 | 97.7 | 92.9 | 88.5 | 80.8 | 105 | 120 | 94.2 | 101 | 92.2 | 103 | 97.9 | 83.3 | 90.4 | 86.1 | 98 | 102 | 101 | 98.4 | 106 | 99.3 | 104 | 106 | 108 | 85.7 | 114 | 91.7 |
| Cc1cccc(-c2nn(C(=S)Nc3ccccc3)cc2-c2ccnc3ccccc23)n1 | – | – | – | – | – | – | – | – | – | – | – | 117 | 124 | 139 | 131 | 152 | 130 | 121 | 126 | 110 | 118 | 42.2 | – | – | – | – | – | – | – | – | – | – | – |
| Cc1cccc(C#Cc2ccccc2)n1 | 119 | 140 | 123 | 134 | 132 | 117 | 137 | 134 | 116 | 106 | 89.5 | 128 | 118 | 109 | 123 | 128 | 118 | 128 | 121 | 102 | 105 | 84.4 | – | – | – | – | – | – | – | – | – | – | – |
| CC1(C)CCC(=C(CN2CCN(CC2)C3=CC=C(C=C3)C(=O)N[S+]([O-])(=O)C4=CC(=C(N[C@H](CCN5CCOCC5)CSC6=CC=CC=C6)C=C4)[S+]([O-])(=O)C(F)(F)F)\C1)/C7=CC=C(Cl)C=C7 | 124 | 124 | 126 | 106 | 80.9 | 18.3 | 11.3 | 8.83 | 8.56 | 7.32 | 5.38 | 85.5 | 108 | 95.9 | 82.8 | 42.1 | 19.6 | 8.77 | 6.49 | 5.65 | 5.78 | 4.31 | 111 | 135 | 100 | 102 | 49.6 | 21 | 9.94 | 6.79 | 6.8 | 5.99 | 4.42 |
| [NH2][Pt]([NH2])([Cl])[Cl] | 93.8 | 96 | 94.5 | 95.2 | 107 | 99.4 | 92.2 | 89.6 | 79.1 | 70.9 | 62.1 | 82.9 | 105 | 101 | 93.2 | 102 | 98.8 | 118 | 71 | 70.9 | 65.1 | 52.4 | 85 | 85.3 | 88.1 | 89.5 | 86.8 | 97.8 | 88.1 | 74.3 | 65.9 | 55.3 | 51.8 |
| CC(C)C[C@H](NC(=O)[C@@H](NC(=O)c1cccc(-c2ccccc2)n1)[C@@H](C)O)B(O)O | 98.1 | 110 | 108 | 31.3 | 9.24 | 8.75 | 8.47 | 8.47 | 7.07 | 4.73 | 3.46 | 93 | 107 | 99 | 18.2 | 9.27 | 9.18 | 8.81 | 8.15 | 6.37 | 4.03 | 3.46 | 87.3 | 100 | 95.9 | 28.4 | 9.88 | 9.98 | 9.77 | 9.35 | 6.09 | 3.83 | 3.48 |
